# Measurements from the METLIN SMRT retention time set (Domingo-Almenara et al. 2019).
# Assay: gradient 5% acetonitrile 3 min, to 50% in 2 min, to 85% in 15 min, held 3 min, 100 µL/min
# Conditions: column: Zorbax Extend-C18 2.1 x 50 mm; eluents: water / acetonitrile, 0.1% formic acid
# In short: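 Pure standards were analyzed in mixtures of ~100 molecules using HPLC coupled to a quadrupole time-of-flight mass spectrometer, in both positive and negative ionization mode. Separation used a Zorbax Extend-C18 column (2.1 × 50 mm, 1.8 μm) at 100 μL/min, with water and acetonitrile each containing 0.1% formic acid. Dead and dwell volumes were 40 μL and 900 μL, and data were collected over 3 months. Retention time was read from computationally picked adduct peaks, each inspected manually.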
row,SMILES,RP-LC retention time [s]
1,O=C(Cc1cccs1)N1CCCCC1c1nc(-c2cnccn2)no1 (stereo unspecified),726
2,CCCc1ccc(S(=O)(=O)N2C[C@@H]3C(=O)N(C(CC)c4cccs4)C(=O)[C@@H]3C2)cc1 (stereo partly specified),1160
3,O=C(COc1ccc(F)cc1)Nc1cnc(-c2cccnc2)nc1,707
4,COc1nn(C)cc1C(=O)NCC(=O)Nc1cccc2nsnc12,636
5,Cn1nccc1C(=O)NCc1ccc(-c2nc(-c3cccs3)no2)s1,858
6,CCOC(=O)c1noc2ncnc(NCCN(CC)c3cccc(C)c3)c12,946
7,COC1CCC12CCN(Cc1ccccc1C#N)CC2 (stereo unspecified),603
8,Cc1ccc(Cn2c(=O)n(CCNC(=O)c3cnccn3)c3ncccc32)cc1,737
9,CCC(=O)N1c2ccc(S(=O)(=O)N3CCCCC3)cc2CC1C(=O)NC1CCCCC1 (stereo unspecified),895
10,CCOCCCNCc1ccc(-c2ccc(Br)cc2)o1,705
11,O=C1CC(NC(=O)NCc2ccc(Cl)cc2)CN1 (stereo unspecified),592
12,COc1ccc(-c2c(C)noc2NC(C)=O)cc1S(=O)(=O)Nc1cccc(SC)c1,779
13,O=S(=O)(Nc1cccn2c(C3CCC3)nnc12)c1ccc2c(c1)CCCC2,933
14,COc1ccccc1CNS(=O)(=O)c1cccc(-c2nc(-c3ccccc3)no2)c1,1150
15,Cc1oc(-c2ccccc2)nc1Cc1noc(-c2ccccc2F)n1,675
16,Cc1noc(C)c1C(=O)N(C)C1CCc2nnc(C)n2CC1 (stereo unspecified),552
17,COc1ccc(NC(=O)C2CCCN(S(=O)(=O)c3c[nH]c(C(=O)N4CCCC4)c3)C2)cc1 (stereo unspecified),732

row,SMILES,RP-LC retention time [s]
1,Cc1cc2c(cc1S(=O)(=O)N1CCC(C(=O)NCc3ccc(Cl)cc3)CC1)OCC(=O)N2,786
2,CC(C)(C)CC(=O)NCCc1noc(C2CC2)n1,713
3,O=C(Nc1ccc(Cl)cc1)C1CCCN(S(=O)(=O)c2c[nH]c(C(=O)N3CCCCCC3)c2)C1 (stereo unspecified),959
4,Cc1ccc(NS(=O)(=O)c2cc3c(=O)n(C)ncn3c2)cc1F,841
5,CCc1onc(C)c1C1CCCN1C(=O)c1c(OC)cccc1OC (stereo unspecified),898
6,Cc1ccc2c(c1)N(S(C)(=O)=O)CCC(C(=O)NC1CCCCCCC1)O2 (stereo unspecified),1050
7,CCOC(=O)CNC(=O)N(C)CCc1noc(-c2ccc(F)cc2)n1,742
8,CCCN1C(=O)COc2ccc(-c3noc(Cc4cccc(F)c4)n3)cc21,1100
9,NC[C@@H]1O[C@H](C23CC4CC(CC(C4)C2)C3)Cc2c1ccc(O)c2O,787
10,Cc1nc(CN2CC(c3nc(-c4cccs4)no3)C2)cs1,568
11,Cn1ncc2c(N3CCSCC3)nc(C(=O)NCCc3ccccn3)nc21,572
12,O=C(CSc1nnnn1-c1cccc(C(F)(F)F)c1)N1CCOCC1,733
13,O=S(=O)(c1ccc(Cl)cc1)N1CCc2nc(-c3ccc(F)cc3)ncc2C1,1150
14,CCN1CCCC1CNC(=O)c1nc(-c2ccc3c(c2)OCC(=O)N3C)no1 (stereo unspecified),617
15,COc1ccc(-c2nnc(COc3ccc(NC(=O)c4ccccn4)cc3)o2)cc1,930
16,COc1ccc(C2CN(S(=O)(=O)c3ccc(C#N)cc3)CCN2C)cc1 (stereo unspecified),564

# Second part, the molecule after the results:
row,RP-LC retention time [s],SMILES
1,834,O=C(Cn1ccc2sccc2c1=O)Nc1cccc(C(F)(F)F)c1
2,753,CCCC(NC(=O)Cc1ccc(Cl)cc1)C(=O)Nc1nc2ccccc2[nH]1 (stereo unspecified)
3,626,Cc1cccc(NC(=O)CN2CCc3[nH]c4c(C)c(C)ccc4c(=O)c3C2)c1
4,1070,O=C(Nc1cccc(OCc2nnc(-c3ccc(Cl)cc3)o2)c1)c1ccccn1
5,781,O=C(NCCCN1CCCC1=O)c1csc(N2CCN(c3ccccc3)CC2)n1
6,716,COC(=O)c1c(C)[nH]c(C(=O)N2CCC(CC(=O)NCc3ccccc3)CC2)c1C
7,664,Cc1ccc2nc3sc(C(=O)N4CCN(c5ccccn5)CC4)cc3cc2c1
8,1020,Cc1cccc(NC(=O)C2CCN(S(C)(=O)=O)c3cc(Cl)ccc3O2)c1 (stereo unspecified)
9,1160,O=C(c1cccc(Br)c1)N1CCc2nc(-c3ccc(Cl)cc3)ncc2C1
10,941,CCOC(=O)CCNC(=O)N1CCc2c([nH]c3ccccc23)C1c1ccccc1F (stereo unspecified)
11,728,Cc1nnc2c(=O)n(CC(=O)NCc3ccc(C(F)(F)F)cc3)c3cccnc3n12
12,736,CCn1ccc2c(cc(C(=O)Nc3cccc(C)c3C)n2C)c1=O
13,904,Cc1ccc(NC(=O)N2CCC(n3cnc4cc(Cl)ccc4c3=O)CC2)cc1F
14,650,O=C(NCc1cccs1)C1CCCN(c2nnc3ccc(Cl)cn23)C1 (stereo unspecified)
15,772,Cn1cc(S(=O)(=O)N2CCC(C(=O)NCc3ccc(Cl)cc3)CC2)cc1C(=O)N1CCCC1
16,836,Cc1ccccc1CNC(=O)c1ccc2c(c1)nc1n2CCN(C2CCCCC2)C1=O
17,1090,CC(C)c1cccc(NC(=O)Cn2nc(N3CCCC3)c3ccccc3c2=O)c1

row,RP-LC retention time [s],SMILES
1,879,Cc1cc(NC(=O)C(C)(C)C)nn1Cc1ccccc1
2,635,O=C(CCCn1c(=O)c2cccn2c2ccc(F)cc21)NCCN1CCCCCC1
3,836,O=C(Nc1ccc(N2CCN(c3ccccc3)C2=O)nc1)c1cccs1
4,986,O=C(Nc1ccc2c(c1)OCO2)C(=O)c1cccn1Cc1ccccc1
5,892,O=C(CN1C(=O)CN(C(=O)NCc2ccccc2)c2ccccc21)NC1CCCc2ccccc21 (stereo unspecified)
6,814,O=C(Cn1c(=O)c2cc(-c3ccco3)nn2c2ncccc21)Nc1ccc(F)cc1
7,679,Cc1ccc2nc(CN3CCN(C(=O)Nc4ccccc4C)CC3)oc2c1
8,818,O=c1c(NCCC2=CCCCC2)nc2ccncc2n1Cc1ccccc1
9,905,COc1ccc(CNC(=O)c2cc(-c3ccccc3)ns2)cc1
10,1090,CC(C)CCNC(=O)C1CCN(c2nccn3nc(-c4cccs4)cc23)CC1
11,1060,O=C(CSc1nnnn1-c1ccccc1)c1ccc(Cl)c(Cl)c1
12,966,COc1ccc(-n2c(=O)n(C)c(=O)c3cc(C(=O)Nc4ccc(Cl)cc4)cnc32)cc1
13,950,Cc1ccc(S(=O)(=O)N2CCC(C(=O)NCc3csc(-c4cccs4)n3)CC2)cc1C
14,665,Cc1ccc2c(=O)c3c([nH]c2c1C)CCN(CC(=O)Nc1ccc(F)c(Cl)c1)C3
15,708,O=C(Cn1nc2c(N3CCCCCC3)nccn2c1=O)Nc1ccccc1Cl
16,917,Cc1nc(-c2ccccc2)cc2nn(CC(=O)N(C)c3ccccc3)c(=O)n12
